Source: ChEMBL document CHEMBL4330118, “Structure-guided discovery of a novel, potent, and orally bioavailable 3,5-dimethylisoxazole aryl-benzimidazole BET bromodomain inhibitor” (Bioorg Med Chem, 2019)

Tests used:
Assay type in all cases: ADME, organism-based
[1] = Plasma concentration in mouse xenografted with human SU-DHL10 cells at 1 mg/kg, po administered twice daily via gavage for 21 days measured at 2 hrs post last dose
[2] = Plasma concentration in mouse xenografted with human SU-DHL10 cells at 3 mg/kg, po administered twice daily via gavage for 21 days measured at 2 hrs post last dose
[3] = Plasma concentration in mouse xenografted with human SU-DHL10 cells at 10 mg/kg, po administered twice daily via gavage for 21 days measured at 2 hrs post last dose
[4] = Plasma concentration in mouse xenografted with human SU-DHL10 cells at 20 mg/kg, po administered twice daily via gavage for 21 days measured at 2 hrs post last dose
[5] = Plasma concentration in mouse xenografted with human SU-DHL10 cells at 10 mg/kg, po administered once daily via gavage for 21 days measured at 2 hrs post last dose
[6] = Plasma concentration in mouse xenografted with human SU-DHL10 cells at 1 mg/kg, po administered twice daily via gavage for 21 days measured at 12 hrs post last dose
[7] = Plasma concentration in mouse xenografted with human SU-DHL10 cells at 3 mg/kg, po administered twice daily via gavage for 21 days measured at 12 hrs post last dose
[8] = Plasma concentration in mouse xenografted with human SU-DHL10 cells at 10 mg/kg, po administered twice daily via gavage for 21 days measured at 12 hrs post last dose
[9] = Plasma concentration in mouse xenografted with human SU-DHL10 cells at 20 mg/kg, po administered twice daily via gavage for 21 days measured at 12 hrs post last dose
[10] = Plasma concentration in mouse xenografted with human SU-DHL10 cells at 10 mg/kg, po administered once daily via gavage for 21 days measured at 12 hrs post last dose

concentration at 2 h [1]: 556 nM
concentration at 2 h [2]: 2620 nM
concentration at 2 h [3]: 4320 nM
concentration at 2 h [4]: 4780 nM
concentration at 2 h [5]: 5830 nM
concentration at 12 h [6]: 13 nM
concentration at 12 h [7]: 18 nM
concentration at 12 h [8]: 32 nM
concentration at 12 h [9]: 32 nM
concentration at 12 h [10]: 207 nM
Compound: Cc1ccc2ncccc2c1-c1cc(-c2c(C)noc2C)cc2nc(C3CC3)[nH]c12
